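All cell lines were grown in 96-well plates and treated with compound for 48 hours. TGI: total growth inhibition.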
Assays:
Assay in all cases: NCI anticancer screen, dose series, 48 h
SF-295 CNS = test system: SF-295 CNS
LOX IMVI melanoma = test system: LOX IMVI melanoma
KM20L2 colon = test system: KM20L2 colon
SF-539 CNS = test system: SF-539 CNS
SF-268 CNS = test system: SF-268 CNS
HOP-18 NSCLC = test system: HOP-18 NSCLC
DLD-1 colon = test system: DLD-1 colon
RPMI-8226 leukemia = test system: RPMI-8226 leukemia
HCT-116 colon = test system: HCT-116 colon
SNB-19 CNS = test system: SNB-19 CNS
DMS 114 small cell lung = test system: DMS 114 small cell lung
SW-620 colon = test system: SW-620 colon
OVCAR-5 ovarian = test system: OVCAR-5 ovarian
SN12C renal = test system: SN12C renal
M19-MEL melanoma = test system: M19-MEL melanoma
HOP-62 NSCLC = test system: HOP-62 NSCLC
UACC-62 melanoma = test system: UACC-62 melanoma
UACC-257 melanoma = test system: UACC-257 melanoma
IGROV1 ovarian = test system: IGROV1 ovarian
XF 498 CNS = test system: XF 498 CNS
HL-60(TB) leukemia = test system: HL-60(TB) leukemia
U251 CNS = test system: U251 CNS
SNB-78 CNS = test system: SNB-78 CNS
SK-OV-3 ovarian = test system: SK-OV-3 ovarian
ACHN renal = test system: ACHN renal
786-0 renal = test system: 786-0 renal
RXF 393 renal = test system: RXF 393 renal
SR leukemia = test system: SR leukemia
COLO 205 colon = test system: COLO 205 colon
SK-MEL-5 melanoma = test system: SK-MEL-5 melanoma
LXFL 529 NSCLC = test system: LXFL 529 NSCLC
MOLT-4 leukemia = test system: MOLT-4 leukemia
A498 renal = test system: A498 renal
HT29 colon = test system: HT29 colon
TK-10 renal = test system: TK-10 renal
OVCAR-4 ovarian = test system: OVCAR-4 ovarian
OVCAR-3 ovarian = test system: OVCAR-3 ovarian
DMS 273 small cell lung = test system: DMS 273 small cell lung
NCI-H23 lung = test system: NCI-H23 lung
M14 melanoma = test system: M14 melanoma
MALME-3M melanoma = test system: MALME-3M melanoma
SNB-75 CNS = test system: SNB-75 CNS
NCI-H460 lung = test system: NCI-H460 lung
OVCAR-8 ovarian = test system: OVCAR-8 ovarian
EKVX NSCLC = test system: EKVX NSCLC
SK-MEL-28 melanoma = test system: SK-MEL-28 melanoma
K-562 leukemia = test system: K-562 leukemia
CCRF-CEM leukemia = test system: CCRF-CEM leukemia
NCI-H522 lung = test system: NCI-H522 lung
UO-31 renal = test system: UO-31 renal
KM12 colon = test system: KM12 colon
NCI-H226 lung = test system: NCI-H226 lung
HCT-15 colon = test system: HCT-15 colon
A549 NSCLC = test system: A549 NSCLC
HCC-2998 colon = test system: HCC-2998 colon

Measured: TGI

COc1ccccc1N=Nc1c(-c2ccccc2)nn(C(=O)CC(=O)Nc2ccccc2Cl)c1-c1ccccc1
> 100 µM: all assays above

— PubChem BioAssay (NCI)
